Source: PubChem BioAssay AID743029 (The Scripps Research Institute Molecular Screening Center, 2013)

What was measured:
Experiment in all cases: CYP450 isoform inhibition, late-stage follow-up, ADME assay for V1a-R antagonist project, biochemical, LC-MS (AID 743029)
[1] = target: Cytochrome P450 1A2 (Homo sapiens) (UniProt P05177); settings: human CYP isoforms, marker substrate metabolism, CYP1A2, at 10 µM, stronger effect = higher value
[2] = target: Cytochrome P450 2D6 (Homo sapiens) (UniProt P10635); settings: human CYP isoforms, marker substrate metabolism, CYP2D6, at 10 µM, stronger effect = higher value
[3] = target: Cytochrome P450 3A4 (Homo sapiens) (UniProt P08684); settings: human CYP isoforms, marker substrate metabolism, CYP3A4, at 10 µM, stronger effect = higher value
[4] = target: Cytochrome P450 2C9 (Homo sapiens) (UniProt P11712); settings: human CYP isoforms, marker substrate metabolism, CYP2C9, at 10 µM, stronger effect = higher value
Sequence of Cytochrome P450 2C9 (Homo sapiens) (P11712 whole entry, looked up, canonical isoform): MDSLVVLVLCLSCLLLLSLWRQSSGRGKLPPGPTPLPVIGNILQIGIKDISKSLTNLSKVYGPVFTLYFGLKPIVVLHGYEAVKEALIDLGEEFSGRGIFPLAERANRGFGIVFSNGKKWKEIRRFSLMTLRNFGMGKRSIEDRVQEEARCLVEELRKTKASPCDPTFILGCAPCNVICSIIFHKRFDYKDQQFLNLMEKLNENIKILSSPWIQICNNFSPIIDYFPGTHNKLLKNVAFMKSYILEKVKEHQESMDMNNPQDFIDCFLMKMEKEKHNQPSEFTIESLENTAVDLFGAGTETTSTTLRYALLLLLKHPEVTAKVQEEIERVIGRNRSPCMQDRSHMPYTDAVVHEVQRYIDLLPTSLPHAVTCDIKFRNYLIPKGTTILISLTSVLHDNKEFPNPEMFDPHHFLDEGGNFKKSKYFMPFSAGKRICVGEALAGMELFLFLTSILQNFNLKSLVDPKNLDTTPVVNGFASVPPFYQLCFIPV

Sequence of Cytochrome P450 1A2 (Homo sapiens) (P05177 whole entry, looked up, canonical isoform): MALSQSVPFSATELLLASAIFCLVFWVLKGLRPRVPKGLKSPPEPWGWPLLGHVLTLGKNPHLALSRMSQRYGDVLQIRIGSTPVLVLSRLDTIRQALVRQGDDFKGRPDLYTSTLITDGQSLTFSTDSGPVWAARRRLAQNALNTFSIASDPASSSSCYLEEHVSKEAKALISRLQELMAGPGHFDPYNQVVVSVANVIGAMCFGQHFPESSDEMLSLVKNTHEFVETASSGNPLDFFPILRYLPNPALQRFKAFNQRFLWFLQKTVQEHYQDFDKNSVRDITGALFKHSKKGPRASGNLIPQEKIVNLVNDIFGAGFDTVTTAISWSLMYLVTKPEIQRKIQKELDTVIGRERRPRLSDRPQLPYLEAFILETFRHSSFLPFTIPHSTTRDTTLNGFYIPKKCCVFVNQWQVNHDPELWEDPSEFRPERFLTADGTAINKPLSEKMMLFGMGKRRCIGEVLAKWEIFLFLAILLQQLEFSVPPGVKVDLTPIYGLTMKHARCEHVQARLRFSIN
Sequence of Cytochrome P450 2D6 (Homo sapiens) (P10635 whole entry, looked up, canonical isoform): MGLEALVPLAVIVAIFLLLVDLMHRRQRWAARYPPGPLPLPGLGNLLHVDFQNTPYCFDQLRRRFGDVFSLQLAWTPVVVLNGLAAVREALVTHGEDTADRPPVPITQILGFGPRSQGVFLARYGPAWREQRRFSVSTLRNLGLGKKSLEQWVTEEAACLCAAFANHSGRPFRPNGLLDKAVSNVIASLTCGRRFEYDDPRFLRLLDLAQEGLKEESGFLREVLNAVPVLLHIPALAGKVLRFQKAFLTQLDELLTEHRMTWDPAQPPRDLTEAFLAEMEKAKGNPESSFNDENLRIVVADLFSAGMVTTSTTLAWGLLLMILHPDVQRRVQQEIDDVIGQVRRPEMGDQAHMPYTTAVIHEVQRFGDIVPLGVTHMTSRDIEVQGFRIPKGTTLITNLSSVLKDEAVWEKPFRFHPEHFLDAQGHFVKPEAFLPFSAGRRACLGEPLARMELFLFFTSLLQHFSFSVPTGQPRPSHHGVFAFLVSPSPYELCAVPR
Sequence of Cytochrome P450 3A4 (Homo sapiens) (P08684 whole entry, looked up, canonical isoform): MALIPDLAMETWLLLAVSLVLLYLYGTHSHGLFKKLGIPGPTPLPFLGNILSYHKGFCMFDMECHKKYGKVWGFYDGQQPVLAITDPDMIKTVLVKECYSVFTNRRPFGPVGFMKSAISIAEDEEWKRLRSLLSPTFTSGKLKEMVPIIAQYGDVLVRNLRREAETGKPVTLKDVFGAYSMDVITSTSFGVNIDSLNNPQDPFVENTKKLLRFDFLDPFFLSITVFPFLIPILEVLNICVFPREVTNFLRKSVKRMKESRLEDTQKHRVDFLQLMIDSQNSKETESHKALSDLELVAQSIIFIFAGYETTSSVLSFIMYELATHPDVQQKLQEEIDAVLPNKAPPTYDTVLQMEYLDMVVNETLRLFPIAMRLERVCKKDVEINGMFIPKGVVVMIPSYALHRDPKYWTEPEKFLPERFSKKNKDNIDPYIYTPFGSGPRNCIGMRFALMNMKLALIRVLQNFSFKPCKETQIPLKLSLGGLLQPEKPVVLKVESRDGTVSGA

O=C(C1CCN(c2ccc(Cl)cn2)CC1)N(CC1CC1)c1ccc(Cl)cc1
inhibition [1]: -19%
inhibition [2]: 2%
inhibition [3]: -5%
inhibition [4]: -6%
